# Measurements taken from PubChem BioAssay (NCI).
#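 A five-concentration, 48-hour dose response in 96-well plates underlies each endpoint, interpolated linearly between surrounding concentrations. At the GI50, growth is halved. The concentration for full growth arrest is given as TGI.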
# Assays:
# Experiment in all cases: DTP human tumour cell line panel, 48 h
# [1] = tested on: SF-268 CNS
# [2] = tested on: SK-MEL-5 melanoma
# [3] = tested on: NCI-H522 lung
# [4] = tested on: HOP-62 NSCLC
# [5] = tested on: CAKI-1 renal
# [6] = tested on: ACHN renal
# [7] = tested on: SW-620 colon
# [8] = tested on: U251 CNS
# [9] = tested on: NCI-H23 lung
# [10] = tested on: EKVX NSCLC
# [11] = tested on: OVCAR-3 ovarian
# [12] = tested on: SN12C renal
# [13] = tested on: K-562 leukemia
# [14] = tested on: MOLT-4 leukemia
# [15] = tested on: A498 renal
# [16] = tested on: OVCAR-5 ovarian
# [17] = tested on: A549 NSCLC
# [18] = tested on: NCI-H226 lung
# [19] = tested on: RPMI-8226 leukemia
# [20] = tested on: SF-539 CNS
# [21] = tested on: IGROV1 ovarian
# [22] = tested on: CCRF-CEM leukemia
# [23] = tested on: HOP-92 NSCLC
# [24] = tested on: UACC-257 melanoma
# [25] = tested on: MALME-3M melanoma
# [26] = tested on: HT29 colon
# [27] = tested on: KM12 colon
# [28] = tested on: SF-295 CNS
# [29] = tested on: RXF 393 renal
# [30] = tested on: NCI-H460 lung
# [31] = tested on: HCC-2998 colon
# [32] = tested on: PC-3 prostate
# [33] = tested on: DU-145 prostate
# [34] = tested on: HCT-116 colon
# [35] = tested on: MCF7 breast
# [36] = tested on: COLO 205 colon
# [37] = tested on: SR leukemia
# [38] = tested on: MDA-MB-468 breast
# [39] = tested on: MDA-MB-435
# [40] = tested on: HCT-15 colon
# [41] = tested on: OVCAR-8 ovarian
# [42] = tested on: BT-549 breast
# [43] = tested on: HL-60(TB) leukemia
# [44] = tested on: LOX IMVI melanoma
# [45] = tested on: M14 melanoma
# [46] = tested on: SK-MEL-28 melanoma
# [47] = tested on: OVCAR-4 ovarian
# [48] = tested on: 786-0 renal
# [49] = tested on: NCI/ADR-RES ovarian
# [50] = tested on: HS 578T breast
# [51] = tested on: T-47D breast
# [52] = tested on: SK-OV-3 ovarian
# [53] = tested on: SNB-19 CNS
# [54] = tested on: TK-10 renal
# [55] = tested on: UACC-62 melanoma
smiles,measurement,setting,value
N#Cc1c(-c2ccc(F)cc2)nc(SCc2ccc(F)cc2)nc1N1CCNCC1,GI50,[1],14.1 µM
same,TGI,[1],30.9 µM
same,GI50,[2],16.8 µM
same,TGI,[2],30.5 µM
same,GI50,[3],13.9 µM
same,TGI,[3],29.9 µM
same,GI50,[4],17 µM
same,TGI,[4],33.4 µM
same,GI50,[5],15.3 µM
same,TGI,[5],29 µM
same,GI50,[6],15 µM
same,TGI,[6],28.5 µM
same,GI50,[7],5.97 µM
same,TGI,[7],19.2 µM
same,GI50,[8],10.3 µM
same,TGI,[8],24.7 µM
same,GI50,[9],16 µM
same,TGI,[9],30.4 µM
same,GI50,[10],13.1 µM
same,TGI,[10],26.4 µM
same,GI50,[11],15.5 µM
same,TGI,[11],30.8 µM
same,GI50,[12],15.3 µM
same,TGI,[12],29 µM
same,GI50,[13],3.76 µM
same,TGI,[13],17.8 µM
same,GI50,[14],10.5 µM
same,TGI,[14],26 µM
same,GI50,[15],15.3 µM
same,TGI,[15],29.8 µM
same,GI50,[16],14.5 µM
same,TGI,[16],28 µM
same,GI50,[17],11.5 µM
same,TGI,[17],25 µM
same,GI50,[18],15.9 µM
same,TGI,[18],35.7 µM
same,GI50,[19],6.75 µM
same,TGI,[19],24.6 µM
same,GI50,[20],15.6 µM
same,TGI,[20],29 µM
same,GI50,[21],15.6 µM
same,TGI,[21],29.8 µM
same,GI50,[22],14.8 µM
same,TGI,[22],33.6 µM
same,GI50,[23],7.64 µM
same,TGI,[23],22.1 µM
same,GI50,[24],14.8 µM
same,TGI,[24],28.7 µM
same,GI50,[25],14.7 µM
same,TGI,[25],28.4 µM
same,GI50,[26],4.87 µM
same,TGI,[26],17.3 µM
same,GI50,[27],18 µM
same,TGI,[27],33.6 µM
same,GI50,[28],16.6 µM
same,TGI,[28],30.9 µM
same,GI50,[29],7.3 µM
same,TGI,[29],21.4 µM
same,GI50,[30],14.3 µM
same,TGI,[30],29.4 µM
same,GI50,[31],2.53 µM
same,TGI,[31],6.27 µM
same,GI50,[32],12.5 µM
same,TGI,[32],27.7 µM
same,GI50,[33],16.8 µM
same,TGI,[33],31.3 µM
same,GI50,[34],4.15 µM
same,TGI,[34],15.6 µM
same,GI50,[35],6.43 µM
same,TGI,[35],20.2 µM
same,GI50,[36],1.83 µM
same,TGI,[36],3.4 µM
same,GI50,[37],2.18 µM
same,TGI,[37],5.07 µM
same,GI50,[38],12.4 µM
same,TGI,[38],26.2 µM
same,GI50,[39],16.8 µM
same,TGI,[39],31.3 µM
same,GI50,[40],11.7 µM
same,TGI,[40],24.6 µM
same,GI50,[41],13.2 µM
same,TGI,[41],30.5 µM
same,GI50,[42],10.7 µM
same,TGI,[42],23 µM
same,GI50,[43],7.66 µM
same,TGI,[43],24 µM
same,GI50,[44],2.28 µM
same,TGI,[44],5.69 µM
same,GI50,[45],13.6 µM
same,TGI,[45],26.8 µM
same,GI50,[46],16.4 µM
same,TGI,[46],30.2 µM
same,GI50,[47],16.5 µM
same,TGI,[47],33.6 µM
same,GI50,[48],13.8 µM
same,TGI,[48],29.3 µM
same,GI50,[49],13.7 µM
same,TGI,[49],30.4 µM
same,GI50,[50],15.6 µM
same,TGI,[50],34.6 µM
same,GI50,[51],13.8 µM
same,TGI,[51],30.4 µM
same,GI50,[52],16 µM
same,TGI,[52],29.8 µM
same,GI50,[53],14.9 µM
same,TGI,[53],29.4 µM
same,GI50,[54],15 µM
same,TGI,[54],29.7 µM
same,GI50,[55],15.9 µM
same,TGI,[55],29.9 µM
